Results: US12258424B2, “Polypeptides and compositions comprising the same” (priority 2020, dated 2025)
Positions of bridges follow the written chain, without caps; N, C: chain ends. Residues, ends and D or L forms follow the SMILES beside them.

How the values were obtained:
[1] = tested on: IL-6; conditions: cancer patients, Herbst et al. 2014; cited from earlier work
[2] = Proteolytic stability in 50% human serum (LC-MS); format: in vitro ADME
Experimental: Half-life in 50% human serum. Proteolytic stability of the peptides was investigated using LC-MS. Solutions of the anti-PD-L1 peptides were incubated with 50% human serum at […], aliquots were taken at specific time points for processing and subsequent LC-MS analysis.

[3] = Cell viability of DU145 cells (CellTiter-Glo); format: cell-based; conditions: human, read-out: % cell viability after incubation with 50 μM peptide
Experimental: % cell viability after incubation with 50 μM peptide. White 96-well plates with clear bottom (Corning, RFE 3610) were seeded with DU145 cells at a density of 1×10^4 cells/well and incubated in a humidified atmosphere at 37° C. with a supply of 5% CO2. After 12 h, various peptide concentrations were added to the cells and incubated for 48 h. CellTiter-Glo kit (Promega, WI) was employed in the cell viability analysis by following the manufacturer's instructions.

[4] = target: PD1/PD-L1 (Homo sapiens, UniProt Q9NZQ7); experiment: IC50 and blocking efficiency against PD1/PD-L1 (Table 5); format: binding
Experimental: (§1) Blocking efficiency at 10 μM/IC50 against human and mouse PD1/PD-L1 (ELISA). […] 100 ng of recombinant human PD-L1 protein was coated in 96-well plates at 4° C. for 16 h with shaking over an orbital shaker. Unbound protein was removed by washing twice with PBS (pH 7.2-7.4), 2% BSA was added for 1.5 h at 37° C. to block the plate. Specific concentrations of the peptides were dispensed into the appropriate wells and incubated for 2 h at 37° C. […] This was followed by the addition of streptavidin-HRP and chromogenic substrate (R & D systems). The color reaction was terminated with 2N H2SO4, absorbance was recorded at OD450 and referenced to OD540.

[5] = target: T1, hPD-L1 (Homo sapiens, UniProt Q9NZQ7); experiment: PD-1/PD-L1 inhibitor screening ELISA, human proteins; format: binding; parameters: purchased Acro Biosystems EP-101
Experimental: as §1

[6] = target: T1, hPD-L1; experiment: Competitive SPR blocking of PD-L1 binding to immobilized PD-1; parameters: purchased Acro Biosystems EP-101
Experimental: % Blocking efficiency at 10 μM (Competitive SPR)/IC50 (competitive SPR) hPD-L1. BI-4500A SPR and a CM-5 sensor chip pre-functionalized with streptavidin (Biosensing Instrument Inc., Tempe, Ariz.) were employed for the SPR analysis. […] Different concentrations of each peptide were incubated with human PD-L1 (AcroBiosystems, cat #EP-101) prior to injection. Human PD-L1 alone was also injected to serve as a control. […] Data was analyzed with SPR Data Analysis Version 3.8.4 (Biosensing Instrument Inc., Tempe, AZ).

[7] = target: mPD-L1 (Mus musculus, UniProt Q9EP73); experiment: PD-1/PD-L1 blocking ELISA, mouse proteins; format: binding; parameters: purchased Acro Biosystems PD1-M5220 (PD-L1)
Experimental: as §1

T1 sequence (Q9NZQ7 19-238 limits assumed): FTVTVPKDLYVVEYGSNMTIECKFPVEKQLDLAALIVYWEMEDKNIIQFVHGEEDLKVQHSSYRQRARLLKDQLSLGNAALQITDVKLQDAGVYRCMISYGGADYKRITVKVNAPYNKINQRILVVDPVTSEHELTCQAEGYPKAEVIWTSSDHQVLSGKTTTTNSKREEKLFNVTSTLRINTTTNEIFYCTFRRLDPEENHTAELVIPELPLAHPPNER
Sequence of PD1/PD-L1 (Q9NZQ7 19-238 limits assumed): as above
Sequence of mPD-L1 (Q9EP73 19-238 limits assumed): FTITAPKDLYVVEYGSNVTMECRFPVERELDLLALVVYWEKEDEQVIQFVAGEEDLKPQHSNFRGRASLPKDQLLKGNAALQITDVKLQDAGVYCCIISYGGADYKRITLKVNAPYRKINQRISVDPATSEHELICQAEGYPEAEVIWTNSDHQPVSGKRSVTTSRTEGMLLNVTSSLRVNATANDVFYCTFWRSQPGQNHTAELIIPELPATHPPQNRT

Row | half-life [2] | % Blocking efficiency at 10 μM [4] | % Blocking efficiency at 10 μM (ELISA) hPD-L1 [5] | % Blocking efficiency at 10 μM (Competitive SPR) hPD-L1 [6] | % Blocking efficiency at 10 μM (ELISA) mPD-L1 [7] | Molecule | Expression of IL-6 in the blood [1] | viability at 48 h, 50 µM [3]
1 | – | – | – | – | – | MPDL3280A: anti-PD-L1 antibody MPDL3280A (Herbst et al. 2014) | reduced | –
2 | 70.8 min | 78% | 85.9% | 99.4% | 82.6% | CC(C)C[C@H](NC(=O)[C@H](CC(N)=O)NC(=O)[C@H](Cc1c[nH]c2ccccc12)NC(=O)[C@@H]1CSSC[C@H](N)C(=O)N[C@@H](Cc2c[nH]cn2)C(=O)N[C@@H](CCCNC(=N)N)C(=O)N[C@@H](CO)C(=O)N[C@@H](Cc2ccc(O)cc2)C(=O)N[C@@H](Cc2ccc(O)cc2)C(=O)N1)C(=O)N[C@@H](CC(N)=O)C(=O)N[C@H](C(=O)O)[C@@H](C)O [CLP2C21] (H-CHRSYYCWNLNT-OH; disulfide 1-7; N-terminus and C-terminus assumed) | – | ~100%
3 | 38.1 min | 75% | 75.0% | 86.8% | 89.3% | CC(C)C[C@@H]1NC(=O)[C@H](CC(N)=O)NC(=O)[C@H](Cc2c[nH]c3ccccc23)NC(=O)[C@H]([C@@H](C)O)NC(=O)[C@H](Cc2ccc(O)cc2)NC(=O)[C@H](Cc2ccc(O)cc2)NC(=O)[C@H](CO)NC(=O)[C@H](CCCNC(=N)N)NC(=O)[C@H](Cc2c[nH]cn2)NC(=O)[C@@H](N)CSSC[C@@H](C(=O)O)NC(=O)[C@H](CC(N)=O)NC1=O [CLP2C14] (H-CHRSYYTWNLNC-OH; disulfide 1-12; N-terminus and C-terminus assumed) | – | ~100%
